Experimental data reported in US20140038281A1, “SYSTEM FOR CARGO DELIVERY INTO THE CELLS” (CEPEP III AB, priority 2011, published 2014).

System: Hela pLuc 705 cells
Test: Toxicity measurements (MTS cell proliferation assay)
Format: cell-based
Conditions: peptide:2'-OMe ON complexes, 200 nM ON, 24 hours, most effective concentrations (FIG. 6)
Description: Cell proliferation was studied with CellTiter 96® A Queous Non-Radioactive Cell Proliferation Assay (MTS) according to the manufacturer's instructions. Briefly, 10000 Hela pLuc 705 cells per well were seeded 1 day prior to experiment on a 96-well plate in complete DMEM. Cells were treated with peptide: 2′-OMe ON complexes at four different molar ratios (5:1, 7:1, 10:1 and 20:1) for 4 hours in serum-free medium, followed by the addition of 10% serum containing medium and incubated for additional 20 hours. MTS was added according to the manufacturer's general protocol (Promega Biotech AB, Sweden). The conversion of MTS into aqueous, soluble formazan is accomplished by dehydrogenase enzymes found in metabolically active cells. The absorbance of formazan product was measured at 490 nm, which is directly proportional to the number of living cells in culture. Absorbance was measured on Tecan Sunrise microplate absorbance reader (Tecan Group Ltd., Switzerland) and the percentage of viable cells was determined using GraphPad Prism software 5.0 (Graphpad Software, CA, USA).

SMILES	toxicity (cell viability by MTS)
CCCCCCCCCCCCCCCCCC(=O)N[C@@H](C)C(=O)NCC(=O)N[C@@H](Cc1ccc(OP(=O)(O)O)cc1)C(=O)N[C@@H](CC(C)C)C(=O)N[C@@H](CC(C)C)C(=O)NCC(=O)N[C@@H](CCCCN)C(=O)N[C@H](C(=O)N[C@@H](CC(N)=O)C(=O)N[C@@H](CC(C)C)C(=O)N[C@@H](CCCCN)C(=O)N[C@@H](C)C(=O)N[C@@H](CC(C)C)C(=O)N[C@@H](C)C(=O)N[C@@H](C)C(=O)N[C@@H](CC(C)C)C(=O)N[C@@H](C)C(=O)N[C@@H](CCCCN)C(=O)N[C@@H](CCCCN)C(=O)N[C@H](C(=O)N[C@@H](CC(C)C)C(N)=O)[C@@H](C)CC)[C@@H](C)O [NickFect 1, Stearyl-AGY(PO3)LLGKTNLKALAALAKKIL-NH2]	not toxic
CCCCCCCCCCCCCCCCCC(=O)N[C@@H](C)C(=O)NCC(=O)N[C@@H](Cc1ccc(O)cc1)C(=O)N[C@@H](CC(C)C)C(=O)N[C@@H](CC(C)C)C(=O)NCC(=O)N[C@@H](CCCCN)C(=O)N[C@H](C(=O)N[C@@H](CC(N)=O)C(=O)N[C@@H](CC(C)C)C(=O)N[C@@H](CCCCN)C(=O)N[C@@H](C)C(=O)N[C@@H](CC(C)C)C(=O)N[C@@H](C)C(=O)N[C@@H](C)C(=O)N[C@@H](CC(C)C)C(=O)N[C@@H](C)C(=O)N[C@@H](CCCCN)C(=O)N[C@@H](CCCCN)C(=O)N[C@H](C(=O)N[C@@H](CC(C)C)C(N)=O)[C@@H](C)CC)[C@@H](C)OP(=O)(O)O [NickFect 2, Stearyl-AGYLLGKT(PO3)NLKALAALAKKIL-NH2]	not toxic
